The record followed here is article PMC4457528, “Identification of Novel Small Molecule Inhibitors of Oncogenic RET Kinase” (PLoS ONE, 2015).

One assay relates to RAT1 cells. Briefly: Growth curves, parental RAT1 cells. It counts as cell-based, rat. The following applies: low serum. As to the method: To compare cell growth, we performed unpaired Student’s t test using the Instat software program (Graphpad Software Inc). P values were two-sided, and differences were considered statistically significant at P <.02. IC50 doses were calculated through a curve fitting analysis from last day values using the PRISM software program (Graphpad Software Inc).

Assay [1] relates to SHC and MAPK phosphorylation in Nthy-ori-3-1 cells. Briefly: Western blot of SHC and MAPK phosphorylation in Nthy-ori-3-1 cells. The assay is classed as cell-based, human. The conditions noted are these: 10, 100 and 1,000 nM, 2 hr. As to the method:
(§1) Protein lysates were prepared according to standard procedures. Briefly, cells were lysed in a buffer containing 50 mM N-2-hydroxyethylpiperazine-N'-2-ethanesulfonic acid (HEPES; pH 7.5), 1% (vol/vol) Triton X-100, 150 mM NaCl, 5 mM EGTA, 50 mM NaF, 20 mM sodium pyrophosphate, 1 mM sodium vanadate, 2 mM phenylmethylsulphonyl fluoride (PMSF) and 1 μg/ml aprotinin. Lysates were clarified by centrifugation at 10,000 Xg for 15 min. […] Immune complexes were detected with the enhanced chemiluminescence kit (Amersham Pharmacia Biotech, Little Chalfort, UK). Signal intensity was analyzed at the Phosphorimager (Typhoon 8600, Amersham Pharmacia Biotech) interfaced with the ImageQuant software. Anti-phospho-SHC (#07206), that recognizes SHC proteins when phosphorylated on Y317 was from Merck Millipore (Darmstadt, Germany). Anti-MAPK (#4695) and anti-phospho-MAPK (#4370), specific for p44/42MAPK (ERK1/2) phosphorylated on Thr202/Tyr204, anti-VEGFRII (#2479) and anti-phospho-VEGFRII (#2478), that recognizes VEGF Receptor 2 when phosphorylated on Y1175, were from Cell Signaling (Beverly, MA).
Anti-SHC (#H-108) was from Santa Cruz Biotechnology (Santa Cruz, CA). Anti-RET is a polyclonal antibody raised against the tyrosine kinase protein fragment of human RET [28]. Anti-phospho905 is a phospho-specific polyclonal antibody recognizing RET proteins phosphorylated at Y905 and anti-phospho1062 is a phospho-specific polyclonal antibody recognizing RET proteins phosphorylated at Y1062 [13]. Secondary antibodies coupled to horseradish peroxidase were from Santa Cruz Biotechnology.
We selected TT and MZ-CRC-1 cells, that derive from human MTC harbouring the RET/C634W or RET/M918T mutation, respectively, and TPC1 cells, that derive from human PTC bearing the RET/PTC1 (CCDC6-RET) rearrangement. […] Concentrations as low at 10 nM of all three drugs inhibited RET autophosphorylation as well as SHC and MAPK activation by 20–40% of control (Fig 4A–4C). […]

A further assay concerns the target T1, VEGFRII (Homo sapiens, UniProt P35968).
T1 construct: endogenous in cells; host or cells: TT human medullary thyroid carcinoma cells
Description: Western blot of VEGFRII phosphorylation in TT cells. It counts as cell-based. The conditions noted are these: 2 hr, Western blotting. As to the method: as §1
VEGFRII inhibition is believed to contribute, based on its anti-angiogenic effect, to clinical activity of approved RET inhibitors such as vandetanib and cabozantinib.
The blots were normalized using anti-VEGFRII (αVEGFRII) antibody. (JPG) Click here for additional data file.

Assay [2] concerns the target T2, KinomeScan kinase panel (Homo sapiens, UniProt O75716).
T2 construct: purchased DiscoveRx (KinomeScan)
Description: KinomeScan kinase panel, single concentration 10 µM. It counts as binding. The following applies: read-out: score (%).

Assay [3] deals with T3, KinomeScan kinase panel (Homo sapiens, UniProt P49760).
T3 construct: purchased DiscoveRx (KinomeScan)
T3 sequence (P49760 whole entry): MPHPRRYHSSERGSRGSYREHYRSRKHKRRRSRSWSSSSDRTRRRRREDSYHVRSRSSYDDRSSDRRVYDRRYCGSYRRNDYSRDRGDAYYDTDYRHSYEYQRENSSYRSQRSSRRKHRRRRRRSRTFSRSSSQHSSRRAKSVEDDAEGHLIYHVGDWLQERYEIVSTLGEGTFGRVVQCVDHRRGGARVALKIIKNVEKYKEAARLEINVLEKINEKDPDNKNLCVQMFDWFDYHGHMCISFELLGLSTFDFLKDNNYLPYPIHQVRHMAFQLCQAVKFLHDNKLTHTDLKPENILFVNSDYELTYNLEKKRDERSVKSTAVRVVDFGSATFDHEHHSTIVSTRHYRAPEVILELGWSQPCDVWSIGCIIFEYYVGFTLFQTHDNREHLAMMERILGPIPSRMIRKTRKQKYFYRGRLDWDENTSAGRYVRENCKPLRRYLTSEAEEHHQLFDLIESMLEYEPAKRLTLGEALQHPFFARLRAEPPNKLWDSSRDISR
The assay is described as above. The assay is classed as binding. The following applies: CLK2, 10 µM; read-out: score (%).

Assay [4] deals with T4, KinomeScan kinase panel (Homo sapiens, UniProt P51813).
T4 construct: purchased DiscoveRx (KinomeScan)
T4 sequence (P51813 1-675): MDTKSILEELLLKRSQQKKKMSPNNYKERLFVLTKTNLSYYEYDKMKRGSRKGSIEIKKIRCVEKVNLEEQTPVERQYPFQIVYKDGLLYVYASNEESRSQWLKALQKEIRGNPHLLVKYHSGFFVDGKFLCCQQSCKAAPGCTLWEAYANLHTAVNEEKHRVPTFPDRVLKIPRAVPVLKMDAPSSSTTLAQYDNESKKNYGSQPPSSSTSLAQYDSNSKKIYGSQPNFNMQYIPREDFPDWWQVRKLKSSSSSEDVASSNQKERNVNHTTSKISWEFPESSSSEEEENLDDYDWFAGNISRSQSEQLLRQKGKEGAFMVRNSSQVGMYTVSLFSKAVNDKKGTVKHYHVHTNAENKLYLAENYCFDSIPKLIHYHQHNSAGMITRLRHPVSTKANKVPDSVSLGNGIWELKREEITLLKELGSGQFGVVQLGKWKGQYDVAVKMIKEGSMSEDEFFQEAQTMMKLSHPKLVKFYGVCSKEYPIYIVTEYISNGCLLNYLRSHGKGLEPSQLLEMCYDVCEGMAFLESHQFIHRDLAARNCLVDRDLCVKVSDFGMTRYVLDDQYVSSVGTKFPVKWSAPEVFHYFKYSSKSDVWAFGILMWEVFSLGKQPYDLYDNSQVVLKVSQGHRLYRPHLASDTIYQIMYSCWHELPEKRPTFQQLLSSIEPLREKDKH
Described as above. It counts as binding. The conditions noted are these: BMX, 10 µM; read-out: score (%).

Assay [5] concerns the target T5, KinomeScan kinase panel (Homo sapiens, UniProt Q8N752).
T5 construct: purchased DiscoveRx (KinomeScan)
T5 sequence (Q8N752 1-337): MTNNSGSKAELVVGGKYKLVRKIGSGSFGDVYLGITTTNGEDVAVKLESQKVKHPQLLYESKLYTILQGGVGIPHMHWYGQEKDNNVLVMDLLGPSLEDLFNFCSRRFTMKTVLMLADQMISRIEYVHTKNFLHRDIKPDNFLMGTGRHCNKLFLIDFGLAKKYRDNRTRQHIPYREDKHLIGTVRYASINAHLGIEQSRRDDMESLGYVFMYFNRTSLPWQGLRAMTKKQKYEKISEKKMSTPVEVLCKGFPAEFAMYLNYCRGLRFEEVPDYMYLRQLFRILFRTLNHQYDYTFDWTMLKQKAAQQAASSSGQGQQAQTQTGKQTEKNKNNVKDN
The description is as above. The assay is classed as binding. The conditions noted are these: CSNK1A1L, 10 µM; read-out: score (%).

Assay [6] addresses T6, KinomeScan kinase panel (Homo sapiens, UniProt Q9HAZ1).
T6 construct: purchased DiscoveRx (KinomeScan)
Described as above. The assay is classed as binding. The following applies: CLK4, 10 µM; read-out: score (%).

A further assay relates to RET/C634Y. The following applies: 10 nM, 2 hr, NIH3T3, Western blotting, data not shown.

Read-outs that look alike come from different tables or passages of the source.

T2 sequence (O75716 whole entry): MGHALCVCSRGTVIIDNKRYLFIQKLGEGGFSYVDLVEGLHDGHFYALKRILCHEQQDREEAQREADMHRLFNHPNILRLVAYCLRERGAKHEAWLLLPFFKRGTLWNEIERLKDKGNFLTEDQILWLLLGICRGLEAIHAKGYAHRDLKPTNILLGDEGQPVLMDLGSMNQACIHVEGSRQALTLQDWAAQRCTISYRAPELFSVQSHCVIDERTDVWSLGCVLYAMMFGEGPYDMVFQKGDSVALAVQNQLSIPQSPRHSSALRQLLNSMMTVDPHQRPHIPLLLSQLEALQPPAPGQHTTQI
T6 sequence (Q9HAZ1 whole entry): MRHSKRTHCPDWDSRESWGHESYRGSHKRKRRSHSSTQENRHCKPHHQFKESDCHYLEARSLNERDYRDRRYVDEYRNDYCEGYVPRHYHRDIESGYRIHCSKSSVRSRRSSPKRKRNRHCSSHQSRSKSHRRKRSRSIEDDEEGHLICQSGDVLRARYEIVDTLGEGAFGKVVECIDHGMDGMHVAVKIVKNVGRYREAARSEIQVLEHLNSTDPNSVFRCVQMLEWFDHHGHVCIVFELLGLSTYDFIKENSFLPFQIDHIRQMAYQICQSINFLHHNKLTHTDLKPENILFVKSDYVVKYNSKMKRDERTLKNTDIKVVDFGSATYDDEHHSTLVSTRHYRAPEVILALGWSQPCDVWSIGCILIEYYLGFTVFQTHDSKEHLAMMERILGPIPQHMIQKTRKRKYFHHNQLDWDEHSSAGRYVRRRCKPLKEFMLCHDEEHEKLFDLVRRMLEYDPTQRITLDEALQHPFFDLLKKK
T1 sequence (P35968 20-1356): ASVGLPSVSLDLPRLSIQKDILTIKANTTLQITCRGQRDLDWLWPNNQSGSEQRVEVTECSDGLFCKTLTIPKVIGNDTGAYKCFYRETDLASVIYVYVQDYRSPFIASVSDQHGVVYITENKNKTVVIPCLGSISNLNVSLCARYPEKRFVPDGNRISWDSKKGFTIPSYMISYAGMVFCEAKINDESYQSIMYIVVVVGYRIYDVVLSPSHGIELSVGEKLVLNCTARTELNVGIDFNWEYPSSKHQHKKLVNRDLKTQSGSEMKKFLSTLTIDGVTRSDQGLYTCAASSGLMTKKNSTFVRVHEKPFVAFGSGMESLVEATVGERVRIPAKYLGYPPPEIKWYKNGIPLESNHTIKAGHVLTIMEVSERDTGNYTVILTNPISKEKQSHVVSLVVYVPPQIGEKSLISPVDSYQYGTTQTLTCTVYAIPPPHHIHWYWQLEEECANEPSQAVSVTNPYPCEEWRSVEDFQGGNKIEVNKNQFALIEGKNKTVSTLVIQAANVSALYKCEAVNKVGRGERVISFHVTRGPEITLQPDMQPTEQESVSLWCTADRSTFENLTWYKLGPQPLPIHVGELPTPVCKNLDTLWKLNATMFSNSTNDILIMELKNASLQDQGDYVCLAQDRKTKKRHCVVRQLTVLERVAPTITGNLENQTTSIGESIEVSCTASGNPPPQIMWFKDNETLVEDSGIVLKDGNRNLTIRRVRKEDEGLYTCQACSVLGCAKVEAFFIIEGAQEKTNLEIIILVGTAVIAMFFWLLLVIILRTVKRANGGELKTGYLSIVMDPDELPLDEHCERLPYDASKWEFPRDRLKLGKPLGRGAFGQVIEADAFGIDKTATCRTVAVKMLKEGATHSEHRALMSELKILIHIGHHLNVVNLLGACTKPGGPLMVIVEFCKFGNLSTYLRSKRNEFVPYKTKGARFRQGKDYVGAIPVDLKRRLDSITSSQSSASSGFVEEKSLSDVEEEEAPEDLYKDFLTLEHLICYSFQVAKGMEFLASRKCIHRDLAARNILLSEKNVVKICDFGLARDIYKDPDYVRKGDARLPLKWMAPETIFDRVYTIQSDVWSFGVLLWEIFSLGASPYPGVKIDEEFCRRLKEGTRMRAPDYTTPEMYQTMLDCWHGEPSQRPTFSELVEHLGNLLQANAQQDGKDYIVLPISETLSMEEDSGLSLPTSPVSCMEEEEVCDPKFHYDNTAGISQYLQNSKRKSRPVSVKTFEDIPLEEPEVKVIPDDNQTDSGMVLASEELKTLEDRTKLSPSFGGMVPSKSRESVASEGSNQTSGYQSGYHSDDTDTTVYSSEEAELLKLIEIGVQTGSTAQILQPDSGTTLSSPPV

As to `CCN1CCN(Cc2ccc(NC(=O)c3ccc(C)c(NC(=O)c4cncc(-c5cccs5)c4)c3)cc2C(F)(F)F)CC1` [ALW-II-41-27], the “Growth inhibition IC50 dose: RAT1” value in the assay with RAT1 cells is “Not measurable”. Also, the “effect on SHC and MAPK phosphorylation in Nthy-ori-3-1 cells” value (“effect on SHC and MAPK phosphorylation” below) in assay [1] is “did not exert any detectable effects”. Also, the “inhibition of VEGFRII phosphorylation in living TT cells” value (from here on “inhibition of VEGFRII phosphorylation”) at VEGFRII was “able to inhibit”. In addition, the remaining binding at 10 µM at KinomeScan kinase panel [2] (kinase STK16, 10 µM) was over 30%; at KinomeScan kinase panel [3], 2.4%; at KinomeScan kinase panel [4] it was 11%; on KinomeScan kinase panel [5], over 30%; on KinomeScan kinase panel [6], 5.3%. For the same compound, the “inhibition of RET/C634Y protein” value in the assay on RET/C634Y was over 30%.

Regarding `CCN1CCN(Cc2ccc(NC(=O)c3ccc(C)c(/C=C/c4cnc5[nH]ccc5c4Cl)c3)cc2C(F)(F)F)CC1` [HG-6-63-01, (E)-3-(2-(4-chloro-1H-pyrrolo[2,3-b]pyridin-5-yl)vinyl)-N-(4-((4-ethylpiperazin-1-yl)methyl)-3-(trifluoromethyl)phenyl)-4-methylbenzamide], the “Growth inhibition IC50 dose: RAT1” value with RAT1 cells was “Not measurable”. Also, the “effect on SHC and MAPK phosphorylation” value in [1] was “did not exert any detectable effects”. The “inhibition of VEGFRII phosphorylation” value at VEGFRII is “able to inhibit”. The remaining binding at 10 µM at KinomeScan kinase panel [2] (STK16, 10 µM) is 18%; on KinomeScan kinase panel [3], over 30%; at KinomeScan kinase panel [4] it was 1.6%; on KinomeScan kinase panel [5], over 30%; on KinomeScan kinase panel [6] it was over 30%. Further, in the assay with RET/C634Y, the “inhibition of RET/C634Y protein” value is given as over 30%.

For the compound `CCN1CCN(Cc2ccc(NC(=O)c3ccc(C)c(C#Cc4cccnc4)c3)cc2C(F)(F)F)CC1` [XMD15-44], the “Growth inhibition IC50 dose: RAT1” value in the assay on RAT1 cells was “Not measurable”. Also, the “effect on SHC and MAPK phosphorylation” value in [1] was “did not exert any detectable effects”. In addition, on VEGFRII, the “inhibition of VEGFRII phosphorylation” value is “able to inhibit”. The remaining binding at 10 µM at KinomeScan kinase panel [2] (kinase STK16, 10 µM) is 100%; on KinomeScan kinase panel [3], over 30%; at KinomeScan kinase panel [4], 2.7%; at KinomeScan kinase panel [5], over 30%; at KinomeScan kinase panel [6], 15%. The “inhibition of RET/C634Y protein” value in the assay with RET/C634Y is over 30%.
